# According to patent US12466856B2, “Echinocandin analogues and preparation method therefor” (SHANGHAI SENHUI MEDICINE CO., LTD., priority 2019, dated 2025):
# Like-named read-outs stand apart in the source and are kept apart here. Starred links: 1 amine or outer side, 2 acyl side, 3 side chain; linkers in the order of their positions; H or OH if unused. Positions of bridges follow the written chain, without caps; N, C: chain ends. Non-standard residues stand in square brackets, D forms with d. Residues, ends and D or L forms follow the SMILES beside them. *: point of attachment. Orn(4R-OH,5R-OCH2CH2NMe3+) = C[N+](C)(C)CCO[C@@H](N[*:3])[C@H](O)C[C@H](N[*:1])C(=O)[*:2]; hTyr(3S-OH,4S-OH) = N[C@H](C(=O)O)[C@H](O)[C@@H](O)c1ccc(O)cc1; X2 = CCCCCCc1ccc(-c2ccc(-c3ccc(C(=O)*)cc3)cc2)cc1; X3 = CCCCCNc1ccc(-c2ccc(-c3ccc(C(=O)*)cc3)cc2)cc1; Pro(3S-OH,4S-Me) = C[C@H]1CN[C@H](C(=O)O)[C@H]1O; Hyp = O=C(O)[C@@H]1C[C@@H](O)CN1
# Experiments:
# Assay type in all cases: cell-based
# [1] = tested on: Candida glabrata ATCC 36583; assay: MIC assay (CLSI M27-A3), Candida glabrata ATCC 36583; details: Nakaseomyces glabratus
# Method: (§1) After a test compound was serially diluted, an MIC (minimum inhibitory concentration) assay was performed on the standard Candida strain and an MEC (minimum effective concentration) assay on the standard Aspergillus strain. The MIC assay was performed according to the guidelines of the Clinical and Laboratory Standards Institute (CLSI M27-A3) and the MEC assay according to the guidelines of the Clinical and Laboratory Standards Institute (CLSI M38-A2).
# (§2) The frozen strain was passaged at least twice, and a single colony was picked and resuspended in normal saline or sterile water in a tube. The suspension was vortexed and adjusted to 0.5 McF (1×10^6 to 5×10^6 CFU/mL) using a spectrophotometer at wavelength 530 nm. The suspension was 50-fold diluted with normal saline and then 20-fold diluted with 1×RPMI 1640 broth (1×10^3 to 5×10^3 CFU/mL). 10 μL of the suspension was applied to an SDA plate for colony counting, with a range from about 10 to 50 single colonies.
# (§3) At this time, the bacterium concentration in each well should be 0.5×10^3 to 2.5×10^3 CFU/mL.
# (§4) For echinocandin drugs, Aspergillus was incubated at 28° C. for 21-26 h, and then the MEC results were read.
# (§5) Yeast-type fungi: A disposable sealing film was applied to the 96-well plate, and the mixture was well mixed by shaking. Observation was performed through a plate reader with the naked eye. Comparisons were made to the growth control, and the minimum compound concentration corresponding to ≥50% growth inhibition was defined as MIC. Pictures were taken and saved using an automatic plate reader.
# [2] = tested on: Candida tropicalis (amphotericin-resistant strain) ATCC 200956; assay: microbe, parasite or virus in culture; details: Candida tropicalis, ATCC200956, read-out: MIC, Candida tropicalis (amphotericin-resistant strain) ATCC 200956
# Method: as §1, §2, §3, §4, §5
# [3] = tested on: Candida albicans (azole drug-resistant strain) R357; assay: MIC assay (CLSI M27-A3), Candida albicans azole drug-resistant strain R357; details: Candida albicans, read-out: MIC, Candida albicans (azole drug-resistant strain) R357
# Method: as §1, §2, §3, §4, §5
# [4] = tested on: Candida albicans ATCC 44858; assay: MIC assay (CLSI M27-A3), Candida albicans ATCC 44858; details: Candida albicans
# Method: as §1, §2, §3, §4, §5
# [5] = tested on: Candida albicans ATCC 90028; assay: MIC assay (CLSI M27-A3), Candida albicans ATCC 90028; details: Candida albicans
# Method: as §1, §2
# At this time, the bacterium concentration in each well should be 0.5×10^3 to 2.5×10^3 CFU/mL. […]
# as §5
# [6] = tested on: Candida albicans (azole drug-resistant strain) R358; assay: MIC assay (CLSI M27-A3), Candida albicans azole drug-resistant strain R358; details: Candida albicans, read-out: MIC, Candida albicans (azole drug-resistant strain) R358
# Method: as §1, §2, §3, §4, §5
# [7] = ATCC36583, read-out: MIC, Candida glabrata ATCC 36583
# [8] = ATCC44858, read-out: MIC, Candida albicans ATCC 44858
# [9] = ATCC90028, 24 h, read-out: MIC, Candida albicans ATCC 90028
# [10] = ATCC90028, read-out: MIC, Candida albicans + 50% human serum ATCC 90028
# [11] = ATCC36583, second batch, read-out: MIC, Candida glabrata ATCC 36583
# [12] = ATCC44858, second batch, read-out: MIC, Candida albicans ATCC 44858
# [13] = ATCC90028, second batch, 24 h, 35° C., read-out: MIC, Candida albicans ATCC 90028
# [14] = ATCC90028, second batch, + 50% human serum, read-out: MIC, Candida albicans + 50% human serum ATCC 90028
Compound,"MIC [1, 7]",MIC [2],MIC [3],"MIC [4, 8]","MIC [5, 9]","MIC [5, 10]",MIC [6],"MIC [1, 11]",MIC ([3]; second batch),"MIC [4, 12]","MIC [5, 13]","MIC [5, 14]",MIC ([6]; second batch)
"CCCCCCc1ccc(-c2ccc(-c3ccc(C(=O)N[C@H]4C[C@@H](O)[C@@H](OCC[N+](C)(C)C)NC(=O)[C@@H]5[C@@H](O)[C@@H](C)CN5C(=O)[C@H]([C@@H](C)O)NC(=O)[C@H]([C@H](O)[C@@H](O)c5ccc(O)cc5)NC(=O)[C@@H]5C[C@@H](O)CN5C(=O)[C@H]([C@@H](C)O)NC4=O)cc3)cc2)cc1 [Example 16] (X2-[Orn(4R-OH,5R-OCH2CH2NMe3+)]T[Hyp][hTyr(3S-OH,4S-OH)]T[Pro(3S-OH,4S-Me)]; lactam 1-C)",0.25 µg/mL,0.25 µg/mL,0.25 µg/mL,0.25 µg/mL,0.25 µg/mL,0.5 µg/mL,0.25 µg/mL,–,–,–,–,–,–
CCCCCOc1ccc(-c2ccc(-c3ccc(C(=O)N[C@H]4C[C@@H](O)[C@@H](OC[C@@H](C)[N+](C)(C)C)NC(=O)[C@@H]5[C@@H](O)[C@@H](C)CN5C(=O)[C@H]([C@@H](C)O)NC(=O)[C@H]([C@H](O)[C@@H](O)c5ccc(O)cc5)NC(=O)[C@@H]5C[C@@H](O)CN5C(=O)[C@H]([C@@H](C)O)NC4=O)cc3)cc2)cc1 [Example 23],–,0.25 µg/mL,–,–,–,–,–,0.25 µg/mL,0.25 µg/mL,0.25 µg/mL,0.25 µg/mL,0.25 µg/mL,0.125 µg/mL
CCCCCOc1ccc(-c2ccc(-c3ccc(C(=O)N[C@H]4C[C@@H](O)[C@@H](O[C@@H]5CC[N+](C)(C)C5)NC(=O)[C@@H]5[C@@H](O)[C@@H](C)CN5C(=O)[C@H]([C@@H](C)O)NC(=O)[C@H]([C@H](O)[C@@H](O)c5ccc(O)cc5)NC(=O)[C@@H]5C[C@@H](O)CN5C(=O)[C@H]([C@@H](C)O)NC4=O)cc3)cc2)cc1 [Example 25],–,0.25 µg/mL,–,–,–,–,–,0.25 µg/mL,0.25 µg/mL,0.125 µg/mL,0.25 µg/mL,0.125 µg/mL,0.25 µg/mL
CCCCCOc1ccc(-c2ccc(-c3ccc(C(=O)N[C@H]4C[C@@H](O)[C@@H](O[C@H]5CC[N+](C)(C)C5)NC(=O)[C@@H]5[C@@H](O)[C@@H](C)CN5C(=O)[C@H]([C@@H](C)O)NC(=O)[C@H]([C@H](O)[C@@H](O)c5ccc(O)cc5)NC(=O)[C@@H]5C[C@@H](O)CN5C(=O)[C@H]([C@@H](C)O)NC4=O)cc3)cc2)cc1 [Example 26],–,0.25 µg/mL,–,–,–,–,–,0.25 µg/mL,0.5 µg/mL,0.25 µg/mL,0.25 µg/mL,0.25 µg/mL,0.25 µg/mL
CCCCCOc1ccc(-c2ccc(-c3ccc(C(=O)N[C@H]4C[C@@H](O)[C@@H](O[C@@H](C)C[N+](C)(C)C)NC(=O)[C@@H]5[C@@H](O)[C@@H](C)CN5C(=O)[C@H]([C@@H](C)O)NC(=O)[C@H]([C@H](O)[C@@H](O)c5ccc(O)cc5)NC(=O)[C@@H]5C[C@@H](O)CN5C(=O)[C@H]([C@@H](C)O)NC4=O)cc3)cc2)cc1 [Example 24],–,0.125 µg/mL,–,0.125 µg/mL,–,–,–,0.25 µg/mL,0.5 µg/mL,–,0.25 µg/mL,0.25 µg/mL,0.0625 µg/mL
"CCCCCNc1ccc(-c2ccc(-c3ccc(C(=O)N[C@H]4C[C@@H](O)[C@@H](OCC[N+](C)(C)C)NC(=O)[C@@H]5[C@@H](O)[C@@H](C)CN5C(=O)[C@H]([C@@H](C)O)NC(=O)[C@H]([C@H](O)[C@@H](O)c5ccc(O)cc5)NC(=O)[C@@H]5C[C@@H](O)CN5C(=O)[C@H]([C@@H](C)O)NC4=O)cc3)cc2)cc1 [Example 17] (X3-[Orn(4R-OH,5R-OCH2CH2NMe3+)]T[Hyp][hTyr(3S-OH,4S-OH)]T[Pro(3S-OH,4S-Me)]; lactam 1-C)",0.5 µg/mL,0.25 µg/mL,0.5 µg/mL,0.25 µg/mL,0.25 µg/mL,0.25 µg/mL,0.25 µg/mL,–,–,–,–,–,–
CCCCCOc1ccc(-c2ccc(-c3ccc(C(=O)N[C@H]4C[C@@H](O)[C@@H](OC[C@H](C)[N+](C)(C)C)NC(=O)[C@@H]5[C@@H](O)[C@@H](C)CN5C(=O)[C@H]([C@@H](C)O)NC(=O)[C@H]([C@H](O)[C@@H](O)c5ccc(O)cc5)NC(=O)[C@@H]5C[C@@H](O)CN5C(=O)[C@H]([C@@H](C)O)NC4=O)cc3)cc2)cc1 [Example 22],–,0.25 µg/mL,–,–,–,–,–,0.5 µg/mL,0.5 µg/mL,0.25 µg/mL,0.25 µg/mL,0.25 µg/mL,0.25 µg/mL
